Data on one molecule can be found in patent US20250152527A1 (priority 2023, published 2025).

Test [1] has as its system patients with clinically stable coronary disease. The note with it: Nidorf et al., JACC 2013; 0.5 mg/day in addition to statins and other standard therapies; cited from earlier work.
For test [2] the test system is unchanged. The test is described as follows: LoDoCo Trial: colchicine 0.5 mg/day added to standard secondary prevention therapies. Format: in vivo, human. The procedure: This study is described in PCT/AU2013/001261 and is hereby incorporated in its entirety by reference.
All outcomes were evaluated by an experienced adjudicator blinded to the treatment allocation.
Patients with a history of bypass surgery were only eligible if they had undergone bypass surgery more than 10 years before, or had angiographic evidence of graft failure or had undergone stenting since their bypass surgery. All patients signed informed consent before randomization.
Patients who were intolerant to therapy remained in the study, and were followed in the usual manner and included in the primary intention to treat analysis.
The drug was dispensed by their usual chemist, and if requested, patients were reimbursed for the cost of these scripts. All other treatments were continued as usual.
An acute coronary syndrome (ACS) was defined as either (a) Acute Myocardial Infarction (AMI), as evidenced by acute ischemic chest pain associated with a rise in serum troponin above the upper limit of normal or (b) Unstable Angina (UA), as evidenced by a recent acceleration of the patient's angina unassociated with a rise in serum troponin but associated with angiographic evidence of a change in the patient's coronary anatomy. (Unstable Angina Braunwald classification types IB and IIB). The ACS was characterized as being stent-related if there was evidence of significant in-stent stenosis or acute stent thrombosis. Out of Hospital Cardiac Arrest was defined as either a sudden death as evidenced on the patient's death certificate, or a non-fatal out of hospital cardiac arrest, defined as a recovery from sudden collapse associated with documented asystole, ventricular tachycardia or ventricular fibrillation.
The primary efficacy outcome was the composite, ACS, fatal or non-fatal out of hospital cardiac arrest or non-cardio-embolic ischemic stroke. […]
All time to event outcomes were calculated in days by subtracting the date of randomization from either: (1) the date of event or death; or (2) the trial termination date for those patients not experiencing the defined event. […]

Molecules are shown by their SMILES.

In the case of `COc1cc2c(c(OC)c1OC)-c1ccc(OC)c(=O)cc1[C@@H](NC(C)=O)CC2` [colchicine, (−)-N-[(7S, 12aS)-1,2,3,10-tetramethoxy-9-oxo-5,6,7,9-tetrahydrobenzo[a]heptalen-7-yl]-acetamide], the “prevention of cardiovascular events” value in test [1] was “appeared effective for the prevention of cardiovascular events”. Further, the “patients with ACS unrelated to stent disease associated with an AMI” value in test [2] (4/282 patients) came to 1.4%. For the same molecule, the “patients with ACS unrelated to stent disease associated with UA” value in test [2] (5/282 patients) is 1.8%. Moreover, the “patients with a primary outcome (ACS, out of hospital cardiac arrest or non-cardio-embolic ischemic stroke)” value in test [2] (intention to treat, 15/282 patients, colchicine 0.5 mg/day, median follow up 36 months) came to 5.3%.
